Values quoted from earlier work in patent US20050245504A1, “Treatment of diseases with combinations of alpha 7 Nicotinic Acetylcholine Receptor agonists and other compounds” (priority 2002, published 2005).
Read-outs that look alike come from different tables or passages of the source. One block for each molecule: values may come before it.

Tests used:
5HT3R = target: T1, 5HT3R (Homo sapiens, UniProt P46098)
T1 sequence (P46098 24-478): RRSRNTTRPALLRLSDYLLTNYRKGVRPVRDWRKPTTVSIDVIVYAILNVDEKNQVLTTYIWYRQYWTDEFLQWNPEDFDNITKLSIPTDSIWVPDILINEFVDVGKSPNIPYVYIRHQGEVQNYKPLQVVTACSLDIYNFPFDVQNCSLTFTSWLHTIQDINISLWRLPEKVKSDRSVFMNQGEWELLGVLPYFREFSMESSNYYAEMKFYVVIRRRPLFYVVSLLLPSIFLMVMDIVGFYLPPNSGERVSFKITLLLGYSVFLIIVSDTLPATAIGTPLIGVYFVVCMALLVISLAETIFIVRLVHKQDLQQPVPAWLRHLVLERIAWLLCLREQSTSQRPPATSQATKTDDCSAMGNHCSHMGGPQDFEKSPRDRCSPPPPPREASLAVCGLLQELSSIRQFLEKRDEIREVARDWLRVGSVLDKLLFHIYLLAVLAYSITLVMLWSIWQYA

α7 nAChR = α7 nAChR (Homo sapiens, UniProt P36544)
Chain of α7 nAChR (P36544 23-502): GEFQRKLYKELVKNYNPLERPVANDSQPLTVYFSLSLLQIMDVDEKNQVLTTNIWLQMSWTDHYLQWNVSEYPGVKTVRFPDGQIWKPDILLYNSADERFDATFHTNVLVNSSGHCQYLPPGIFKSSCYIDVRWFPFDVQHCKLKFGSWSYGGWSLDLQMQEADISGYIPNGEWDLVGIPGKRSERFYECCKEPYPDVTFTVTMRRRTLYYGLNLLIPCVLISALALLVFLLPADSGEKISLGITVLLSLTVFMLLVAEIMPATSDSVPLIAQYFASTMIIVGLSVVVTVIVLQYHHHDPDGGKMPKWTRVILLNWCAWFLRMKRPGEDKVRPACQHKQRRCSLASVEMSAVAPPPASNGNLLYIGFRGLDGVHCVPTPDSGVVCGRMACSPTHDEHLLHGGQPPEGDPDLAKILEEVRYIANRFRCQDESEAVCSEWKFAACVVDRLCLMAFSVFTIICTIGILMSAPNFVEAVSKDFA

SMILES: Cc1cc([C@@H]2CCCN2C)on1 [ABT-418]
cognition and attention (clinical trials of Alzheimer's disease and attention-deficit disorders): improves cognition and attention

activity at the 5HT3R (5HT3R): little activity
SMILES: COc1ccc(/C=C2\CCCN=C2c2cccnc2)c(OC)c1 [GTS-21]

activity at the α7 nAChR (α7 nAChR): little activity
SMILES: Cc1nccn1CC1CCc2c(c3ccccc3n2C)C1=O (stereo not shown) [Ondansetron]

SMILES: CN1CCCC1c1cccnc1 (stereo not shown) [nicotine]
cognition and attention (human, in vivo): increases cognition and attention
